The numbers were not newly measured in patent US20110033506A1, “COMBINATION DOSAGE FORM OF LOW-DOSE MODAFINIL AND LOW-DOSE SILDENAFIL” (priority 2008, published 2011), which cites them from elsewhere.

The series relates to hamsters. The settings on record: Agostino et al, PNAS 2007.

In the case of `CCCc1nn(C)c2c(=O)[nH]c(-c3cc(S(=O)(=O)N4CCN(C)CC4)ccc3OCC)nc12.O=C(O)CC(O)(CC(=O)O)C(=O)O` [Sildenafil, 1-[[3-(6,7-dihydro-1-methyl-7-oxo-3-propyl-1H-pyrazolo[4,3-d]pyrimidin-5-yl)-4-ethoxyphenyl]sulfonyl]-4-methylpiperazine], the “re-establishing disrupted circadian rhythms (jet lag)” value was “effective in re-establishing disrupted circadian rhythms”.
